≈ marks a conversion by molar mass, not a printed value.
Tests used:
[1] = tested on: Candida albicans (ATCC no. 10231); experiment: MIC determination by broth microdilution (NCCLS), visual scoring; type: cell-based; settings: for MIC80: Candida albicans, ATCC10231, read-out: MIC80 C. albicans
Outline: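 NCCLS broth microdilution in RPMI 1640 with 10 mM HEPES, final compound 0.5–128 μg/mL, DMSO ≤1%. Inoculum from 0.5 McFarland stock diluted 1:50; incubated 35 °C for 48–72 h. MIC scored visually as lowest concentration giving ~80% growth reduction versus drug-free wells.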

[2] = tested on: Candida glabrata (ATCC no. 48435); experiment: as above; type: cell-based; settings: for MIC80: Nakaseomyces glabratus, ATCC48435, read-out: MIC80 C. glabrata
Protocol: The antifungal activity of the 2,4,6-pyrimidinetrione analogs shown in Schemes 2-6 were evaluated in vitro using Candida albicans (ATCC no. 10231) and Candida glabrata (ATCC no 48435). All assays were done in accordance with NCCLS reference documents^29. The results of these screenings are summarized in Tables 1-9 as the minimal inhibitory concentrations that inhibited more than 80% fungal growth as compared to the positive controls in 1% DMSO and RPMI media. All MIC screens were done using a visual scoring method as opposed to spectroscopic methods of analysis, due to the physical properties of many of the compounds altering their absorbance spectra relative to the positive, negative and drug controls.
None of the compounds tested over the course of these studies were soluble in water and DMSO was used to dilute each compound tested. Master stock concentrations of all tested compounds were prepared to ensure that the maximum final concentration of DMSO was 1% or less. Subsequent 2-fold serial dilutions were made using sterile water to a final concentration of 1280-5.00 μg/ml. A final 10-fold dilution of each drug was made by aliquotting 0.1 mL of each drug dilution into 0.9 mL of fungal suspension in RPMI 1640 media with 10 mM HEPES buffer added (see methodology below), giving final concentrations tested in the range of 128-0.5 μg/ml.
Antifungal susceptibility studies and minimal inhibitory concentrations (MIC) values for Candida albicans (ATCC no. 10231) and Candida glabrata (ATCC no. 48435) were determined by the broth microdilution technique in accordance with NCCLS reference documents. Microdilution panels ranged from 0.5 to 128 μg/mL. All organisms were subcultured on Sabouraud agar and passaged to ensure purity and viability. The initiating inocula were prepared by picking 5-7 isolated colonies ˜1 mm in diameter from freshly prepared YM agar plates. Colonies were resuspended in sterile water, vortexed and the cell density was adjusted spectrophotometrically to the transmittance of a 0.5 McFarland standard at a wavelength of 530 nm, to yield a stock suspension of 1×10^6-5×10^6 cells/mL. The stock was allowed to hydrate for 30 minutes at room temperature. A working suspension was then made by diluting the stock 1:50 with RPMI 1640 media containing HEPES buffer. The working suspension was used for all assays. The plates were incubated at 35° C. for 48-72 hours in a humid atmosphere. Growth was scored visually. MIC values are defined as the lowest concentration of agent that prevents any discernible growth, ˜80% reduction of growth, as compared with drug-free control wells. All assays were run in parallel using either fluconazole or amphotericin B at the NCCLS recommended concentrations^29 as a drug control (Sigma-Aldrich).

[3] = Table 7, Phenylhydrazones of 5-Acylpyrimidinetriones
[4] = Table 5, Schiff Bases of 5-acylpyrimidinetriones
[5] = Table 4, 5,5-Dialkylated Pyrimidinetriones
[6] = Table 1, 5-Acyl-2,4,6-pyrimidinetriones, >80% growth inhibition, RPMI, 1% DMSO
[7] = Table 2, 5-Arylidene-2,4,6-pyrimidinetriones
[8] = Table 3, 5-Alkylated Pyrimidinetriones

## CN1C(=O)C(C(=NNc2ccc([N+](=O)[O-])cc2[N+](=O)[O-])c2ccc(O)cc2)C(=O)N(C)C1=O [BA34]
[1]; [3]
  MIC80 C. albicans: — (none of the 5-acyl-2,4,6-pyrimidinetriones, 5-alkylated pyrimidinetriones or the 5,5-dialkylated pyrimidinetriones showed antifungal activity through 125 μg/mL)
[2]; [3]
  MIC80 C. glabrata: — (none of the 5-acyl-2,4,6-pyrimidinetriones, 5-alkylated pyrimidinetriones or the 5,5-dialkylated pyrimidinetriones showed antifungal activity through 125 μg/mL)

## O=C1NC(=O)C(C=Nc2ccccc2O)C(=O)N1 [BA93]
[1]; Schiff base derivatives, Table 5
  inhibitory activity of Candida albicans: showed inhibitory activity
[1]; Table 5, values marked *: compound displayed MIC with <50% inhibition
  MIC80 C. albicans: 8* μg/mL
[2]; [4]
  MIC80 C. glabrata: — (none of the 5-acyl-2,4,6-pyrimidinetriones, 5-alkylated pyrimidinetriones or the 5,5-dialkylated pyrimidinetriones showed antifungal activity through 125 μg/mL)

## CC(=Nc1ccccc1)C1C(=O)N(C)C(=O)N(C)C1=O [BA91]
[1]; [4]
  MIC80 C. albicans: — (none of the 5-acyl-2,4,6-pyrimidinetriones, 5-alkylated pyrimidinetriones or the 5,5-dialkylated pyrimidinetriones showed antifungal activity through 125 μg/mL)
[2]; [4]
  MIC80 C. glabrata: — (none of the 5-acyl-2,4,6-pyrimidinetriones, 5-alkylated pyrimidinetriones or the 5,5-dialkylated pyrimidinetriones showed antifungal activity through 125 μg/mL)

## CN(C)c1ccc(CC2(CCCc3ccccc3)C(=O)NC(=O)NC2=O)cc1 [BA72]
[1]; [5]
  MIC80 C. albicans: — (none of the 5-acyl-2,4,6-pyrimidinetriones, 5-alkylated pyrimidinetriones or the 5,5-dialkylated pyrimidinetriones showed antifungal activity through 125 μg/mL)
[2]; [5]
  MIC80 C. glabrata: — (none of the 5-acyl-2,4,6-pyrimidinetriones, 5-alkylated pyrimidinetriones or the 5,5-dialkylated pyrimidinetriones showed antifungal activity through 125 μg/mL)

## CN1C(=O)C(C(=O)c2cccc([N+](=O)[O-])c2)C(=O)N(C)C1=O [BA5]
[1]; [6]
  MIC80 C. albicans: — (none of the 5-acyl-2,4,6-pyrimidinetriones, 5-alkylated pyrimidinetriones or the 5,5-dialkylated pyrimidinetriones showed antifungal activity through 125 μg/mL)
[2]; [6]
  MIC80 C. glabrata: — (none of the 5-acyl-2,4,6-pyrimidinetriones, 5-alkylated pyrimidinetriones or the 5,5-dialkylated pyrimidinetriones showed antifungal activity through 125 μg/mL)

## CN1C(=O)C(C=Nc2ccccc2)C(=O)N(C)C1=O [BA90]
[1]; [4]
  MIC80 C. albicans: — (none of the 5-acyl-2,4,6-pyrimidinetriones, 5-alkylated pyrimidinetriones or the 5,5-dialkylated pyrimidinetriones showed antifungal activity through 125 μg/mL)
[2]; [4]
  MIC80 C. glabrata: — (none of the 5-acyl-2,4,6-pyrimidinetriones, 5-alkylated pyrimidinetriones or the 5,5-dialkylated pyrimidinetriones showed antifungal activity through 125 μg/mL)

## CN1C(=O)C(=Cc2ccc(O)cc2)C(=O)N(C)C1=O [BA45]
[1]; [7]
  MIC80 C. albicans: — (none of the 5-acyl-2,4,6-pyrimidinetriones, 5-alkylated pyrimidinetriones or the 5,5-dialkylated pyrimidinetriones showed antifungal activity through 125 μg/mL)
[2]; [7]
  MIC80 C. glabrata: — (none of the 5-acyl-2,4,6-pyrimidinetriones, 5-alkylated pyrimidinetriones or the 5,5-dialkylated pyrimidinetriones showed antifungal activity through 125 μg/mL)

## CN(C)c1ccc(CC2(Cc3ccc(N(C)C)cc3)C(=O)NC(=O)NC2=O)cc1 [BA71]
[1]; [5]
  MIC80 C. albicans: — (none of the 5-acyl-2,4,6-pyrimidinetriones, 5-alkylated pyrimidinetriones or the 5,5-dialkylated pyrimidinetriones showed antifungal activity through 125 μg/mL)
[2]; [5]
  MIC80 C. glabrata: — (none of the 5-acyl-2,4,6-pyrimidinetriones, 5-alkylated pyrimidinetriones or the 5,5-dialkylated pyrimidinetriones showed antifungal activity through 125 μg/mL)

## O=C1NC(=O)C(=Cc2ccc(O)cc2)C(=O)N1 [BA44]
[1]; [7]
  MIC80 C. albicans: — (none of the 5-acyl-2,4,6-pyrimidinetriones, 5-alkylated pyrimidinetriones or the 5,5-dialkylated pyrimidinetriones showed antifungal activity through 125 μg/mL)
[2]; [7]
  MIC80 C. glabrata: — (none of the 5-acyl-2,4,6-pyrimidinetriones, 5-alkylated pyrimidinetriones or the 5,5-dialkylated pyrimidinetriones showed antifungal activity through 125 μg/mL)

## COc1ccc(C(=NCCCCCC(=O)O)C2C(=O)NC(=O)NC2=O)cc1 [BA35]
[1]; [4]
  MIC80 C. albicans: — (none of the 5-acyl-2,4,6-pyrimidinetriones, 5-alkylated pyrimidinetriones or the 5,5-dialkylated pyrimidinetriones showed antifungal activity through 125 μg/mL)
[2]; [4]
  MIC80 C. glabrata: — (none of the 5-acyl-2,4,6-pyrimidinetriones, 5-alkylated pyrimidinetriones or the 5,5-dialkylated pyrimidinetriones showed antifungal activity through 125 μg/mL)

## CN1C(=O)C(C(=O)c2ccc(O)cc2)C(=O)N(C)C1=O [BA11]
[1]; [6]
  MIC80 C. albicans: — (none of the 5-acyl-2,4,6-pyrimidinetriones, 5-alkylated pyrimidinetriones or the 5,5-dialkylated pyrimidinetriones showed antifungal activity through 125 μg/mL)
[2]; [6]
  MIC80 C. glabrata: — (none of the 5-acyl-2,4,6-pyrimidinetriones, 5-alkylated pyrimidinetriones or the 5,5-dialkylated pyrimidinetriones showed antifungal activity through 125 μg/mL)

## CN1C(=O)C(C=O)C(=O)N(C)C1=O [BA19, 1,3-dimethyl-2,4,6-trioxohexahydropyrimidine-5-carbaldehyde]
[1]
  MIC80: > 125 µg/mL
[2]
  MIC80: > 125 µg/mL

## O=C1NC(=O)C(=Cc2ccccc2O)C(=O)N1 [BA47, 5-(2-hydroxybenzylidene)pyrimidine-2,4,6-trione]
[1]
  MIC80: > 125 µg/mL
[2]
  MIC80: 8 µg/mL (≈ 34.5 µM)

## O=C1NC(=O)N(c2ccccc2)C(=O)C1=Cc1ccc(O)cc1 [BA46]
[1]; [7]
  MIC80 C. albicans: — (none of the 5-acyl-2,4,6-pyrimidinetriones, 5-alkylated pyrimidinetriones or the 5,5-dialkylated pyrimidinetriones showed antifungal activity through 125 μg/mL)
[2]; [7]
  MIC80 C. glabrata: — (none of the 5-acyl-2,4,6-pyrimidinetriones, 5-alkylated pyrimidinetriones or the 5,5-dialkylated pyrimidinetriones showed antifungal activity through 125 μg/mL)

## CCCCN1C(=O)NC(=O)C(C(=O)c2ccc(OC)cc2)C1=O (stereo not shown) [BA16]
[1]; [6]
  MIC80 C. albicans: — (none of the 5-acyl-2,4,6-pyrimidinetriones, 5-alkylated pyrimidinetriones or the 5,5-dialkylated pyrimidinetriones showed antifungal activity through 125 μg/mL)
[2]; [6]
  MIC80 C. glabrata: — (none of the 5-acyl-2,4,6-pyrimidinetriones, 5-alkylated pyrimidinetriones or the 5,5-dialkylated pyrimidinetriones showed antifungal activity through 125 μg/mL)

## CN1C(=O)C(=Cc2ccc(N(C)C)cc2)C(=O)N(C)C1=O [BA54]
[1]; [7]
  MIC80 C. albicans: — (none of the 5-acyl-2,4,6-pyrimidinetriones, 5-alkylated pyrimidinetriones or the 5,5-dialkylated pyrimidinetriones showed antifungal activity through 125 μg/mL)
[2]; [7]
  MIC80 C. glabrata: — (none of the 5-acyl-2,4,6-pyrimidinetriones, 5-alkylated pyrimidinetriones or the 5,5-dialkylated pyrimidinetriones showed antifungal activity through 125 μg/mL)

## C/C(=N\Nc1ccc([N+](=O)[O-])cc1[N+](=O)[O-])C1C(=O)N(C)C(=O)N(C)C1=O [BA27, 5-{(1E)-1-[2-(2,4-dinitrophenyl)hydrazinylidene]ethyl}-1,3-dimethylpyrimidine-2,4,6-trione]
[1]
  MIC80: > 125 µg/mL
[2]
  MIC80: > 125 µg/mL

## O=C1NC(=O)N(c2ccccc2)C(=O)C1CC1CCC(O)CC1 (stereo not shown) [BA65]
[1]; [8]
  MIC80 C. albicans: — (none of the 5-acyl-2,4,6-pyrimidinetriones, 5-alkylated pyrimidinetriones or the 5,5-dialkylated pyrimidinetriones showed antifungal activity through 125 μg/mL)
[2]; [8]
  MIC80 C. glabrata: — (none of the 5-acyl-2,4,6-pyrimidinetriones, 5-alkylated pyrimidinetriones or the 5,5-dialkylated pyrimidinetriones showed antifungal activity through 125 μg/mL)

## CN1C(=O)C(C=Nc2ccc(O)cc2)C(=O)N(C)C1=O [BA79]
[1]; [4]
  MIC80 C. albicans: — (none of the 5-acyl-2,4,6-pyrimidinetriones, 5-alkylated pyrimidinetriones or the 5,5-dialkylated pyrimidinetriones showed antifungal activity through 125 μg/mL)
[2]; [4]
  MIC80 C. glabrata: — (none of the 5-acyl-2,4,6-pyrimidinetriones, 5-alkylated pyrimidinetriones or the 5,5-dialkylated pyrimidinetriones showed antifungal activity through 125 μg/mL)

## O=CC1C(=O)NC(=O)NC1=O [BA18]
[1]; [6]
  MIC80 C. albicans: — (none of the 5-acyl-2,4,6-pyrimidinetriones, 5-alkylated pyrimidinetriones or the 5,5-dialkylated pyrimidinetriones showed antifungal activity through 125 μg/mL)
[2]; [6]
  MIC80 C. glabrata: — (none of the 5-acyl-2,4,6-pyrimidinetriones, 5-alkylated pyrimidinetriones or the 5,5-dialkylated pyrimidinetriones showed antifungal activity through 125 μg/mL)

## O=C1NC(=O)C(/C=N/Nc2ccc([N+](=O)[O-])cc2[N+](=O)[O-])C(=O)N1 [BA24, 5-{(E)-[2-(2,4-Dinitrophenyl)hydrazinylidene]methyl}pyrimidine-2,4,6-trione]
[1]
  MIC80: > 125 µg/mL
[2]
  MIC80: 125 µg/mL (≈ 372 µM)

From US20160235752A1, “COMPOSITIONS, METHODS OF USE, AND METHODS OF TREATMENT” (THE UNIVERSITY OF NEW ORLEANS, priority 2013, published 2016)
